Data on 3 molecules can be found in publication PMC2873968, “Novel protein kinase D inhibitors cause potent arrest in prostate cancer cell growth and motility” (BMC Chemical Biology, 2010).

One assay concerns the target T1, PKCδ (Homo sapiens, UniProt Q05655).
T1 construct: purchased Enzo Life Sciences
The assay can be described thus: In vitro radiometric PKC kinase assay. In kind it is biochemical. How it is done: (§1) The PKC in vitro kinase assays were performed as described previously.
To determine whether the novel analogs retained this specificity, we tested the compounds against their ability to inhibit PKCα, -βI, -δ, and CAMKIIα in in vitro radiometric kinase activity assays.
Inhibition of PKCα (A), PKCβI (B), PKCδ (C), or CAMKIIα (D) by each of the 5 analogs was determined at 100 nM, 1 μM, and 10 μM concentrations. […] Data are the mean ± S.E.M. of three independent experiments. Statistical significance was determined using the unpaired t-test. ns, not statistically significant; *, p < 0.05; **, p < 0.01; ***, p < 0.001.

In a further assay the target is T2, PKCα (Homo sapiens, UniProt P17252).
T2 construct: purchased Cell Signaling Technology and Calbiochem
The assay can be described thus: In vitro radiometric PKC kinase assay. In kind it is biochemical. The procedure:
as §1
(§2) To determine whether the novel analogs retained this specificity, we tested the compounds against their ability to inhibit PKCα, -βI, -δ, and CAMKIIα in in vitro radiometric kinase activity assays. All analogs were poor inhibitors of PKCα and PKCβI, with only slight (< 50%) inhibitory activity at 10 μM concentration (Fig. 5A and 5B).
(§3) Inhibition of PKCα (A), PKCβI (B), PKCδ (C), or CAMKIIα (D) by each of the 5 analogs was determined at 100 nM, 1 μM, and 10 μM concentrations. In the PKC assays, the potent PKC inhibitor GF109203X was used as a control. Data are the mean ± S.E.M. of three independent experiments. Statistical significance was determined using the unpaired t-test. ns, not statistically significant; *, p < 0.05; **, p < 0.01; ***, p < 0.001.

In the next assay the target is T3, PKCβI (Homo sapiens, UniProt P05771).
T3 construct: purchased Cell Signaling Technology
The assay can be described thus: In vitro radiometric PKC kinase assay. In kind it is biochemical. The procedure:
as §1, §2, §3

The test system of a further assay is PKD. The settings on record: reported values, no reference given; cited from earlier work.

Each structure is given as a SMILES string.

T1 sequence (Q05655 whole entry): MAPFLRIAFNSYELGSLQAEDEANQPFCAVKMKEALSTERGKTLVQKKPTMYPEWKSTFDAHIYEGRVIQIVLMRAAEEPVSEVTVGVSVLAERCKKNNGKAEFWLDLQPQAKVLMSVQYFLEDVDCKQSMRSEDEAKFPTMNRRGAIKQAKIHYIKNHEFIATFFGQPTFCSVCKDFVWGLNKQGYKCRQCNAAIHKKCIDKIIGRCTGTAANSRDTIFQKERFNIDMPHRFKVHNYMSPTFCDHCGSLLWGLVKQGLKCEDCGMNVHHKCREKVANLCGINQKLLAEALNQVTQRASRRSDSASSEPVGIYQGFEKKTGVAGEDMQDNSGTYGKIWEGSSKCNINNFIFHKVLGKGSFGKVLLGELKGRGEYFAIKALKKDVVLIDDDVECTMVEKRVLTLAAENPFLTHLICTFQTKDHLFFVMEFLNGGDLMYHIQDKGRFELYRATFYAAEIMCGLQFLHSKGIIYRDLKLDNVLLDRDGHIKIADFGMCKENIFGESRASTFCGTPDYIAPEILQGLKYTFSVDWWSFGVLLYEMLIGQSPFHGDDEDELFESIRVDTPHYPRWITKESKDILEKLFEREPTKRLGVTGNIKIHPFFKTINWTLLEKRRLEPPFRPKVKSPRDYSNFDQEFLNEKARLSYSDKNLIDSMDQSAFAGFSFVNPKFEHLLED
T3 sequence (P05771 whole entry): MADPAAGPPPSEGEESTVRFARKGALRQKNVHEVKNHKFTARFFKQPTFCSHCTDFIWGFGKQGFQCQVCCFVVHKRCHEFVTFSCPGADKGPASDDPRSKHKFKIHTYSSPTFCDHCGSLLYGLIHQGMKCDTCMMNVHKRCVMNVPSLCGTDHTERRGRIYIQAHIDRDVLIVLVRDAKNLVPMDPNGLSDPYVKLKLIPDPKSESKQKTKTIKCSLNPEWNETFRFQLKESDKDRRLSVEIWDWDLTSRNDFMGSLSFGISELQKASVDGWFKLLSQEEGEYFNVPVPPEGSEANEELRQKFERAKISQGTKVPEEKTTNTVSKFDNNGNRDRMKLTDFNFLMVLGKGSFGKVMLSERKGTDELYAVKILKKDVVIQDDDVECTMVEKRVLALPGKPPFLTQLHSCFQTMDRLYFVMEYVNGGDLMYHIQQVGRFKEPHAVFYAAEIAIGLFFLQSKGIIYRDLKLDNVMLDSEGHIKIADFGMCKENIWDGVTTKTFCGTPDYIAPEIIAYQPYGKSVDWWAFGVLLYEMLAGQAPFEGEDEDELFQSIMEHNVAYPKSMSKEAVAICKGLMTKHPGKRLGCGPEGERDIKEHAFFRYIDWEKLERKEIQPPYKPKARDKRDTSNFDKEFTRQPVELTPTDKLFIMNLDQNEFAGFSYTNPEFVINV

Turning to `CN(C)CCCn1cc(C2=C(c3c[nH]c4ccccc34)C(=O)NC2=O)c2ccccc21` [GF109203X], the “inhibition of PKCδ (in words)” value against PKCδ is recorded as “strong inhibition”. Besides, the “inhibition of PKCα (in words)” value against PKCα is recorded as “strong inhibition”. For the same molecule, on PKCβI, the “inhibition of PKCβI (in words)” value was “strong inhibition”.

What is called IC50 is the concentration at which inhibition is half-maximal. Consider `COC(=O)[C@@]1(O)C[C@H]2O[C@]1(C)n1c3ccccc3c3c4c(c5c6ccccc6n2c5c31)C(=O)NC4` [Compound K252a], for which the IC50 in the assay on PKD was 7 nM.

`Cn1c2ccccc2c2c3c(c4c5ccccc5n(CCC#N)c4c21)CNC3=O` [Gö6976]: the IC50 in the assay on PKD is 20 nM.
